From PubChem BioAssay (NCI)
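48-hour exposure; five concentrations; linearly interpolated endpoints. TGI marks complete inhibition of growth.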

Experiments:
Assay in all cases: inhibition of tumour cell growth, NCI panel, 48 h
[1] = test system: ACHN renal
[2] = test system: SW-620 colon
[3] = test system: SN12C renal
[4] = test system: NCI-H226 lung
[5] = test system: HOP-62 NSCLC
[6] = test system: MDA-N
[7] = test system: SF-295 CNS
[8] = test system: HL-60(TB) leukemia
[9] = test system: OVCAR-5 ovarian
[10] = test system: 786-0 renal
[11] = test system: OVCAR-8 ovarian
[12] = test system: NCI-H522 lung
[13] = test system: RXF 393 renal
[14] = test system: OVCAR-4 ovarian
[15] = test system: SNB-19 CNS
[16] = test system: BT-549 breast
[17] = test system: OVCAR-3 ovarian
[18] = test system: SNB-75 CNS
[19] = test system: SK-OV-3 ovarian
[20] = test system: MCF7 breast
[21] = test system: DU-145 prostate
[22] = test system: SR leukemia
[23] = test system: MALME-3M melanoma
[24] = test system: SF-268 CNS
[25] = test system: PC-3 prostate
[26] = test system: T-47D breast
[27] = test system: MOLT-4 leukemia
[28] = test system: A549 NSCLC
[29] = test system: K-562 leukemia
[30] = test system: SK-MEL-28 melanoma
[31] = test system: LOX IMVI melanoma
[32] = test system: SK-MEL-5 melanoma
[33] = test system: HS 578T breast
[34] = test system: NCI-H23 lung
[35] = test system: HT29 colon
[36] = test system: NCI/ADR-RES ovarian
[37] = test system: COLO 205 colon
[38] = test system: HCT-15 colon
[39] = test system: RPMI-8226 leukemia
[40] = test system: M14 melanoma
[41] = test system: UACC-257 melanoma
[42] = test system: HCT-116 colon
[43] = test system: HCC-2998 colon
[44] = test system: SF-539 CNS
[45] = test system: MDA-MB-231 breast
[46] = test system: CCRF-CEM leukemia
[47] = test system: MDA-MB-435
[48] = test system: U251 CNS
[49] = test system: HOP-92 NSCLC
[50] = test system: KM12 colon
[51] = test system: NCI-H460 lung
[52] = test system: UACC-62 melanoma
[53] = test system: IGROV1 ovarian
[54] = test system: TK-10 renal
[55] = test system: UO-31 renal
[56] = test system: A498 renal
[57] = test system: SK-MEL-2 melanoma
[58] = test system: CAKI-1 renal

Measured: TGI

CC(=O)OC1CC2(C)C(OC(C)=O)CC1C2(C)C (stereo not drawn)
not listed: [56] | [57] | [58]
> 100 µM: all other assays above

CN(C)CCCNC(=O)N/N=C/c1ccc([N+](=O)[O-])cc1
not listed: [13] | [14] | [31] | [39] | [49]
> 100 µM: all other assays above

O=C1CC(=O)NC(=NN2C(=O)CSC2c2ccccc2)N1 (stereo not drawn)
not listed: [8] | [15] | [31]
> 100 µM: all other assays above
